Converted amounts (≈) assume the structure as drawn. Read-outs that look alike come from different tables or passages of the source.
Experiments:
H. pylori [1] = assay: MIC by broth microdilution assay against H. pylori; format: cell-based; conditions: Helicobacter pylori, 72 h
Method: (§1) The MIC and MBC of the compounds can be measured with the following procedure: In vitro antibacterial activity was tested using the broth microdilution assay. Experiments were carried out in triplicate using Müller-Hinton broth supplemented with 10% FBS in 96-well plates at a total assay volume of 100 μL. Antimicrobials were tested against H. pylori. Two-fold serial dilutions were prepared between the concentration range 0.01-64 μg/mL. An initial bacterial inoculum was adjusted to OD600=0.06 and incubated with test compounds at 37° C. for 3 days in humidified incubators under the 5% CO2 atmosphere. OD600 was measured and the lowest concentration of compound that inhibited bacterial growth was reported as the MIC. See Gwisai T, et al. Repurposing niclosamide as a versatile antimicrobial surface coating against device-associated, hospital-acquired bacterial infections. Biomed Mater. 2017; 12(4):045010. The pH was adjusted to acidic condition with 1 N HCL. The minimal bactericidal concentration (MBC) was determined by plating 5 μL of broth culture from the MIC assay onto Müller-Hinton agar (BD Biosciences) supplemented with 10% FBS. After 72 h, the lowest concentration at which colonies were not observed was reported as the MBC.

H. pylori [2] = assay: MBC by plating broth culture from the MIC assay onto Müller-Hinton agar; format: cell-based; conditions: Helicobacter pylori
Method: as §1

H. pylori strain 49503 = assay: MIC against H. pylori strain 49503; format: cell-based, Helicobacter pylori
Method: as §1

H. pylori strain 43504 = assay: MIC against H. pylori strain 43504; format: cell-based, Helicobacter pylori
Method: as §1

H. pylori strain 51932 = assay: MIC against H. pylori strain 51932; format: cell-based, Helicobacter pylori
Method: as §1

H. pylori [3] = assay: MIC in acidic pH environments; format: cell-based; conditions: Helicobacter pylori
Method: as §1
MIC data in acidic pH is shown in Table 6 for selected compounds identified by compound number.

H. pylori [4] = assay: Antibacterial synergy by checkerboard assay (FICI) with antibiotics and proton pump inhibitors; format: cell-based, Helicobacter pylori; conditions: tested with amoxicillin, clarithromycin, omeprazole and pantoprazole; synergistic effect = FICI ≤0.5
Method: Compounds 1, 13, 15, and 16 were tested with Amoxxicillin, Clarithromycin, Omeprazole, and Pantoprazole.
Antibacterial synergy was tested using the checkerboard assay. The compound of interest was combined with antibiotics and proton pump inhibitors (PPIs). In this series of experiments cultures of H. pylori were adjusted to OD600=0.06 and added to compound pairs that had been serially diluted in the same 96-well plates, vertically for one compound and horizontally for the other. Assays were carried out in triplicate as described in the antibacterial susceptibility assay sub-section. The combinatorial inhibitory concentration was indicated by the FICI. FICI=MICA combination/MICA alone+MICB combination/MICB alone.

[5] = H. pylori, Müller-Hinton broth with 10% FBS, 37° C., 3 days, read-out: MIC
[6] = H. pylori, lowest concentration without colonies after 72 h, read-out: MBC

SMILES	MIC (H. pylori [1]; [5])	MBC (H. pylori [2]; [6])	MIC (H. pylori [1])	MBC (H. pylori [2]; 72 h)	further results
CC1(C)S[C@@H]2[C@H](NC(=O)[C@H](N)c3ccc(O)cc3)C(=O)N2[C@H]1C(=O)O [Amoxicillin, reference compound]	0.01 µg/mL (≈ 0.0274 µM)	0.025 µg/mL (≈ 0.0684 µM)			
CCOP(=O)(N/N=C/c1ccc([N+](=O)[O-])o1)Nc1ccccc1 (stereo not shown) [Compound 1]			1 to 2 µg/mL (≈ 2.96 to 5.91 µM)	2 µg/mL (≈ 5.91 µM)	MIC (H. pylori strain 49503): 1.0-2.0 μ/mL; MIC (H. pylori strain 43504): 2.0 µg/mL (≈ 5.91 µM); MIC (H. pylori strain 51932): 1.0 µg/mL (≈ 2.96 µM); MIC (H. pylori [3]; pH 5.5): 0.25 µg/mL (≈ 0.739 µM); MIC (H. pylori [3]; pH 6): 1 µg/mL (≈ 2.96 µM); MIC (H. pylori [3]; pH 6.5): 1 µg/mL (≈ 2.96 µM); MIC (H. pylori [3]; pH 7): 1 µg/mL (≈ 2.96 µM); Combination effect with secondary agent (FIG. 1) (H. pylori [4]): synergistic effect
CCOP(=O)(N/N=C/c1ccc([N+](=O)[O-])o1)Nc1ccc(C)cc1 (stereo not shown) [Compound 2]			2 µg/mL (≈ 5.68 µM)	2 µg/mL (≈ 5.68 µM)	
CCOP(=O)(N/N=C/c1ccc([N+](=O)[O-])o1)Nc1ccc(OC)cc1 (stereo not shown) [Compound 3]			2 µg/mL (≈ 5.43 µM)	2 µg/mL (≈ 5.43 µM)	
CCOP(=O)(N/N=C/c1ccc([N+](=O)[O-])o1)Nc1ccc(Cl)cc1 (stereo not shown) [Compound 4]			1 µg/mL (≈ 2.68 µM)	1 µg/mL (≈ 2.68 µM)	
CCOP(=O)(N/N=C/c1ccc([N+](=O)[O-])o1)Nc1ccc(Cl)c(Cl)c1 (stereo not shown) [Compound 5]			1 µg/mL (≈ 2.46 µM)	1 µg/mL (≈ 2.46 µM)	
CCOP(=O)(N/N=C/c1ccc([N+](=O)[O-])o1)Nc1ccc2c(c1)OCO2 (stereo not shown) [Compound 6]			2 µg/mL (≈ 5.23 µM)	2 µg/mL (≈ 5.23 µM)	
CCOP(=O)(NCc1ccccc1)N/N=C/c1ccc([N+](=O)[O-])o1 (stereo not shown) [Compound 7]			2 µg/mL (≈ 5.68 µM)	2 µg/mL (≈ 5.68 µM)	
Cc1ccc(NP(=O)(N/N=C/c2ccc([N+](=O)[O-])o2)N2CCOCC2)cc1 (stereo not shown) [Compound 8]	4 µg/mL (≈ 10.2 µM)	4 µg/mL (≈ 10.2 µM)			
Br.Nc1nc2c(s1)CCc1oc([N+](=O)[O-])cc1-2 [Compound 9]	4 µg/mL	4 µg/mL			
Br.CNc1nc2c(s1)CCc1oc([N+](=O)[O-])cc1-2 [Compound 10]	4 µg/mL	4 µg/mL			
O=C(/C=C/c1ccccc1)N/N=C/c1ccc([N+](=O)[O-])o1 [Compound 11]	1 µg/mL (≈ 3.51 µM)	1 µg/mL (≈ 3.51 µM)			
O=C1CCCc2oc([N+](=O)[O-])cc21 [Compound 12]	1 µg/mL (≈ 5.52 µM)	1 µg/mL (≈ 5.52 µM)			
NC(=O)N/N=C1/CCCc2oc([N+](=O)[O-])cc21 [Compound 13]	0.25 µg/mL (≈ 1.05 µM)	0.25 µg/mL (≈ 1.05 µM)			MIC (H. pylori strain 43504): 0.5 µg/mL (≈ 2.1 µM); MIC (H. pylori [3]; pH 5.5, read-out: MIC): 0.06 µg/mL (≈ 0.252 µM); MIC (H. pylori [3]; pH 6.5, read-out: MIC): 0.25 µg/mL (≈ 1.05 µM); MIC (H. pylori [3]; pH 6.0, read-out: MIC): 0.25 µg/mL (≈ 1.05 µM); MIC (H. pylori [3]; pH 7.0, read-out: MIC): 0.25 µg/mL (≈ 1.05 µM); Combination effect with secondary agent (FIG. 1) (H. pylori [4]): synergistic effect
O=[N+]([O-])c1ccc(/C=N/N=C/c2ccc([N+](=O)[O-])o2)o1 [Compound 14]			4 µg/mL (≈ 14.4 µM)	4 µg/mL (≈ 14.4 µM)	
CCOP(=O)(N/N=C1\CCCc2oc([N+](=O)[O-])cc21)Nc1ccccc1 (stereo not shown) [Compound 15]			0.25 µg/mL (≈ 0.661 µM)	0.25 µg/mL (≈ 0.661 µM)	MIC (H. pylori strain 49503): 0.25 µg/mL (≈ 0.661 µM); MIC (H. pylori strain 43504): 1.0 µg/mL (≈ 2.64 µM); MIC (H. pylori strain 51932): 0.25 µg/mL (≈ 0.661 µM); MIC (H. pylori [3]; pH 5.5): 0.06 µg/mL (≈ 0.159 µM); MIC (H. pylori [3]; pH 6): 0.25 µg/mL (≈ 0.661 µM); MIC (H. pylori [3]; pH 6.5): 0.25 µg/mL (≈ 0.661 µM); MIC (H. pylori [3]; pH 7): 0.25 µg/mL (≈ 0.661 µM); Combination effect with secondary agent (FIG. 1) (H. pylori [4]): synergistic effect
O=C(/C=C/c1ccccc1)N/N=C1\CCCc2oc([N+](=O)[O-])cc21 [Compound 16]	0.25 µg/mL (≈ 0.768 µM)	0.25 µg/mL (≈ 0.768 µM)			MIC (H. pylori strain 43504): 1.0 µg/mL (≈ 3.07 µM); MIC (H. pylori [3]; pH 5.5, read-out: MIC): 0.06 µg/mL (≈ 0.184 µM); MIC (H. pylori [3]; pH 6.5, read-out: MIC): 0.25 µg/mL (≈ 0.768 µM); MIC (H. pylori [3]; pH 6.0, read-out: MIC): 0.25 µg/mL (≈ 0.768 µM); MIC (H. pylori [3]; pH 7.0, read-out: MIC): 0.25 µg/mL (≈ 0.768 µM); Combination effect with secondary agent (FIG. 1) (H. pylori [4]): synergistic effect
O=C(Nc1ccc([N+](=O)[O-])cc1Cl)c1cc(Cl)ccc1O [Niclosamide, reference compound]	0.25 µg/mL (≈ 0.764 µM)	0.5 µg/mL (≈ 1.53 µM)			

Source: patent US12369579B2, “Antimicrobial agents and compositions and uses thereof” (KODA Therapeutics, LLC, priority 2019, dated 2025)
